Experimental data as given in the NIST ThermoML archive (doi:10.1021/acs.jced.8b00201).

Assay: xn = mol fraction of the nth substance listed
Details: 100 kPa, Liquid; for viscosity: Concentric cylinders viscometry; for mass density: Vibrating tube method

O=C1CCCCC1 [cyclohexanone] + CCCCCCO
Details	mass density [kg/m3]	viscosity [mPa·s]
293.15 K, x1 = 0.0818	827.6	4.66
293.15 K, x1 = 0.1594	836.2	4.06
293.15 K, x1 = 0.2401	845.5	3.55
293.15 K, x1 = 0.3467	858.2	2.97
293.15 K, x1 = 0.4439	870.2	2.55
293.15 K, x1 = 0.564	885.7	2.18
293.15 K, x1 = 0.6501	897.3	2.02
293.15 K, x1 = 0.7381	909.5	1.97
293.15 K, x1 = 0.8512	925.9	2
293.15 K, x1 = 0.9426	939.8	2.13
293.15 K, x1 = 1	948.8	2.3
298.15 K, x1 = 0.0818	823.8	4.03
298.15 K, x1 = 0.1594	832.2	3.54
298.15 K, x1 = 0.2401	841.3	3.12
298.15 K, x1 = 0.3467	853.7	2.63
298.15 K, x1 = 0.4439	865.5	2.3
298.15 K, x1 = 0.564	880.7	1.98
298.15 K, x1 = 0.6501	892.1	1.86
298.15 K, x1 = 0.7381	904.2	1.81
298.15 K, x1 = 0.8512	920.5	1.84
298.15 K, x1 = 0.9426	934.7	1.95
298.15 K, x1 = 1	943.1	2.09
303.15 K, x1 = 0.0818	820	3.47
303.15 K, x1 = 0.1594	828.3	3.07
303.15 K, x1 = 0.2401	837.2	2.72
303.15 K, x1 = 0.3467	849.5	2.33
303.15 K, x1 = 0.4439	861.1	2.05
303.15 K, x1 = 0.564	876.2	1.8
303.15 K, x1 = 0.6501	887.5	1.71
303.15 K, x1 = 0.7381	899.5	1.67
303.15 K, x1 = 0.8512	915.6	1.7
303.15 K, x1 = 0.9426	929.8	1.79
303.15 K, x1 = 1	938.2	1.91
308.15 K, x1 = 0.0818	816.3	3.04
308.15 K, x1 = 0.1594	824.4	2.71
308.15 K, x1 = 0.2401	833.2	2.41
308.15 K, x1 = 0.3467	845.3	2.09
308.15 K, x1 = 0.4439	856.8	1.87
308.15 K, x1 = 0.564	871.8	1.67
308.15 K, x1 = 0.6501	883	1.59
308.15 K, x1 = 0.7381	894.9	1.55
308.15 K, x1 = 0.8512	911	1.58
308.15 K, x1 = 0.9426	925.1	1.64
308.15 K, x1 = 1	933.5	1.75
313.15 K, x1 = 0.0818	812.4	2.66
313.15 K, x1 = 0.1594	820.5	2.39
313.15 K, x1 = 0.2401	829.2	2.14
313.15 K, x1 = 0.3467	841.1	1.86
313.15 K, x1 = 0.4439	852.5	1.68
313.15 K, x1 = 0.564	867.3	1.51
313.15 K, x1 = 0.6501	878.5	1.45
313.15 K, x1 = 0.7381	890.3	1.42
313.15 K, x1 = 0.8512	906.3	1.45
313.15 K, x1 = 0.9426	920.4	1.51
313.15 K, x1 = 1	928.8	1.6
318.15 K, x1 = 0.0818	808.7	2.33
318.15 K, x1 = 0.1594	816.7	2.1
318.15 K, x1 = 0.2401	825.3	1.9
318.15 K, x1 = 0.3467	837.1	1.68
318.15 K, x1 = 0.4439	848.4	1.52
318.15 K, x1 = 0.564	863.1	1.38
318.15 K, x1 = 0.6501	874.2	1.33
318.15 K, x1 = 0.7381	886	1.31
318.15 K, x1 = 0.8512	901.9	1.33
318.15 K, x1 = 0.9426	916	1.39
318.15 K, x1 = 1	924.4	1.46
323.15 K, x1 = 0.0818	804.9	2.05
323.15 K, x1 = 0.1594	812.8	1.86
323.15 K, x1 = 0.2401	821.4	1.7
323.15 K, x1 = 0.3467	833.2	1.51
323.15 K, x1 = 0.4439	844.5	1.39
323.15 K, x1 = 0.564	859.2	1.28
323.15 K, x1 = 0.6501	870.3	1.23
323.15 K, x1 = 0.7381	882.2	1.22
323.15 K, x1 = 0.8512	898.1	1.23
323.15 K, x1 = 0.9426	912.2	1.27
323.15 K, x1 = 1	920.7	1.34
